Experimental data taken from article PMC11137734, “Exploring Novel Antimalarial Compounds Targeting Plasmodium falciparum Enoyl-ACP Reductase: Computational and Experimental Insights” (ACS Omega, 2024).

Experiments:
[1] = biological target: T1, P. falciparum 2-trans-enoyl-ACP reductase (PfENR) (Plasmodium falciparum, UniProt C6KSZ2); assay: NADH consumption enzymatic assay ([…] nm) with crotonyl-CoA, purified recombinant PfENR; positive control inhibitor; assay type: biochemical
T1 construct: gene PF3D7_0615100; recombinant His-tagged PfENR (pGS-21a, E. coli BL21(DE3))
T1 sequence (C6KSZ2 96-432): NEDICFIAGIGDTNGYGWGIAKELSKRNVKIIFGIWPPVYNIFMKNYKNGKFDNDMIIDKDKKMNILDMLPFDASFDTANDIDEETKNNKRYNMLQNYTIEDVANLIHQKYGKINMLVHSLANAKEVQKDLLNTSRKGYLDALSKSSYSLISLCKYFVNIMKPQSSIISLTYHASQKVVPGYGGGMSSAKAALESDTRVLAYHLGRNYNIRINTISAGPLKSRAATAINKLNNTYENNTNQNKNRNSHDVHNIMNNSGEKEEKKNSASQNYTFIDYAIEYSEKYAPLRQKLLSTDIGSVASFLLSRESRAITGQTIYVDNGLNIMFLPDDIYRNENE

[2] = biological target: T1, P. falciparum 2-trans-enoyl-ACP reductase (PfENR); assay: NADH consumption enzymatic assay ([…] nm) with crotonyl-CoA, purified recombinant PfENR; assay type: biochemical

Row | IC50 [2] [µM] | SMILES | IC50 [1] [µM]
1 |  | Oc1cc(Cl)ccc1Oc1ccc(Cl)cc1Cl [TCL, Triclosan] | 3.58
2 | 3.95 | CCc1ccc(Oc2ccc(NS(=O)(=O)c3ccc4ccccc4c3)cc2)cc1 [LG2, N-[4-(4-ethylphenoxy)phenyl]naphthalene-2-sulfonamide] | 
